According to US10214519B2, “Phosphatidylinositol 3-kinase inhibitors” (Gilead Sciences, Inc., priority 2016, dated 2019):

molecular target: PI3Kβ (Homo sapiens (Human), UniProt P42338); experiment: PI3K isoform TR-FRET enzymatic assay (PI3Kβ); format: biochemical; conditions: 2× Km ATP, 30 minutes at 25° C.
In short: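 Heterodimeric recombinant PI3Kβ was incubated with compound 30 minutes at 25° C. Product was detected by TR-FRET competition with 10 nM labeled PIP3 for 35 nM Eu-GRP-1 PH domain after EDTA stop. Data were normalized to 1 μM wortmannin and DMSO, and IC50 was taken from a four-parameter fit.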

Sequence of PI3Kβ (P42338 whole entry, the tested form may be a part, canonical isoform): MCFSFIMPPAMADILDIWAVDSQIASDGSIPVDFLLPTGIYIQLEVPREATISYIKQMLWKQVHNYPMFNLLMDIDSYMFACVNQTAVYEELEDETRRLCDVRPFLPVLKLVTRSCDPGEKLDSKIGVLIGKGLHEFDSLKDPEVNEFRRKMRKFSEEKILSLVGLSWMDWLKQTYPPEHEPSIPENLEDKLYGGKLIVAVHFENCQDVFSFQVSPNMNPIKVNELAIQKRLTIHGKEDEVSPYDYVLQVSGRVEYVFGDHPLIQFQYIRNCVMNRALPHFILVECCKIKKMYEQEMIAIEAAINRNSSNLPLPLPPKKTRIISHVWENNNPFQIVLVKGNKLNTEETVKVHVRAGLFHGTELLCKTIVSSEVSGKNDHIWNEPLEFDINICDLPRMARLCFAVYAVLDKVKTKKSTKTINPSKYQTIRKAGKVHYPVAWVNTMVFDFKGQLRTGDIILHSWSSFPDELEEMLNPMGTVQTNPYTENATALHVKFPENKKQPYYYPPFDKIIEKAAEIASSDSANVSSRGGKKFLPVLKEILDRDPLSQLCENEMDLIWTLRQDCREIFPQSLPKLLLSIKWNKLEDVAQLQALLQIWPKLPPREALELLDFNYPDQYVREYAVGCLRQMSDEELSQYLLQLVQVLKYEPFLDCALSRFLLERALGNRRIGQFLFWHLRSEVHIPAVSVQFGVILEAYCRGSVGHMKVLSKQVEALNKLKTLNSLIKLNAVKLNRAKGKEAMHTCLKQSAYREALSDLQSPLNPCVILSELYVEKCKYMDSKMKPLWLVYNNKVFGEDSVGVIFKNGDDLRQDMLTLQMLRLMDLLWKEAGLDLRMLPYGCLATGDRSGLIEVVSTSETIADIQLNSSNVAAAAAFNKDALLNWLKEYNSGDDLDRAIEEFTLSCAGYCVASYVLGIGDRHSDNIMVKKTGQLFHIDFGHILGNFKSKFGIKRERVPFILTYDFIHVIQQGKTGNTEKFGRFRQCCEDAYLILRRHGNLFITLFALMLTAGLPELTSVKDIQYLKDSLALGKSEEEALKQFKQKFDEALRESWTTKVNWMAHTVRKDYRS
Sequence of PI3Kβ (P27986 whole entry partner, the tested form may be a part, canonical isoform): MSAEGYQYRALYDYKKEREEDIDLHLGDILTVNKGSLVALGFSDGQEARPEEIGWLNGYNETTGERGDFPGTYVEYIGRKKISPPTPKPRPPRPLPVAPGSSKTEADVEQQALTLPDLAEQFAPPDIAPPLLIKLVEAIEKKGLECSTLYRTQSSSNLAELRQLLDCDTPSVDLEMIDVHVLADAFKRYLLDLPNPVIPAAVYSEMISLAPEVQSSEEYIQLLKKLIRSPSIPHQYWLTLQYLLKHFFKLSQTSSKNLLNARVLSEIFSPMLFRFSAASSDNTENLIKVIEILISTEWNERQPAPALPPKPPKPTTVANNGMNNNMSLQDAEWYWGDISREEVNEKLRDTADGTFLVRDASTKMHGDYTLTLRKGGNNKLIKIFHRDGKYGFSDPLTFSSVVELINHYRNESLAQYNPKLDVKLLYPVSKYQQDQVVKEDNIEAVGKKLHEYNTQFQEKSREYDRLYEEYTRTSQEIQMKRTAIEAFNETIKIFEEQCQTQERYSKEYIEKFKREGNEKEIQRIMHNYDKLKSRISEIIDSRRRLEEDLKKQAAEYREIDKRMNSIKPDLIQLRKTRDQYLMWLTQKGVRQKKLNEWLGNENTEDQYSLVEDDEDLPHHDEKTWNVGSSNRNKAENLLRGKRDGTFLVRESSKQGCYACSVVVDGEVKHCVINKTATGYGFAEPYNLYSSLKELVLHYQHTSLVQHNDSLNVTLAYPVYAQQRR

In order of rising IC50:
1. Clc1cccc2c(-n3cnc4c(-c5nnc[nH]5)cc(N5CCOCC5)cc43)ccnc12 [Example 111, 4-[3-(8-chloroquinolin-4-yl)-7-(4H-1,2,4-triazol-3-yl)benzimidazol-5-yl]morpholine]  3 nM
2. Cc1nc2c(-c3nnc[nH]3)cc(N3CCOCC3)cc2n1-c1cc(-c2cscn2)nc2ccccc12 [Example 103, 4-(2-methyl-1-(2-(thiazol-4-yl)quinolin-4-yl)-4-(4H-1,2,4-triazol-3-yl)-1H-benzo[d]imidazol-6-yl)morpholine]  9 nM
3. CCc1nc2c(-c3nnc[nH]3)cc(N3CCOCC3)cc2n1-c1ccnc2c(Cl)cccc12 [Example 105, 4-[3-(8-chloroquinolin-4-yl)-2-ethyl-7-(4H-1,2,4-triazol-3-yl)benzimidazol-5-yl]morpholine]  10 nM
4. Cc1nc2c(-c3nnc[nH]3)cc(N3CCOCC3)cc2n1-c1ccnc2c(F)ccc(F)c12 [Example 114, 4-[3-(5,8-difluoroquinolin-4-yl)-2-methyl-7-(4H-1,2,4-triazol-3-yl)benzimidazol-5-yl]morpholine]  12 nM
5. Cc1cccc2c(-n3c(C)nc4c(-c5nnc[nH]5)cc(N5CCOCC5)cc43)ccnc12 [Example 109, 4-[2-methyl-3-(8-methylquinolin-4-yl)-7-(4H-1,2,4-triazol-3-yl)benzimidazol-5-yl]morpholine]  13 nM
6. Clc1cccc2c(-n3c(-c4ccccn4)nc4c(-c5nnc[nH]5)cc(N5CCOCC5)cc43)ccnc12 [Example 115, 4-[3-(8-chloroquinolin-4-yl)-2-pyridin-2-yl-7-(4H-1,2,4-triazol-3-yl)benzimidazol-5-yl]morpholine]  14 nM
7. Cc1nc2c(-c3nnc[nH]3)cc(N3CCOCC3)cc2n1-c1ccnc2ccccc12 [Example 106, 4-[2-methyl-3-quinolin-4-yl-7-(4H-1,2,4-triazol-3-yl)benzimidazol-5-yl]morpholine]  17 nM
8. Clc1cccc2c(-n3c(-c4cnco4)nc4c(-c5nnc[nH]5)cc(N5CCOCC5)cc43)ccnc12 [Example 112, 4-[3-(8-chloroquinolin-4-yl)-2-(1,3-oxazol-5-yl)-7-(4H-1,2,4-triazol-3-yl)benzimidazol-5-yl]morpholine]  17 nM
9. Clc1cccc2c(-n3c(C4COC4)nc4c(-c5nnc[nH]5)cc(N5CCOCC5)cc43)ccnc12 [Example 113, 4-[3-(8-chloroquinolin-4-yl)-2-(oxetan-3-yl)-7-(4H-1,2,4-triazol-3-yl)benzimidazol-5-yl]morpholine]  17 nM
10. Clc1cccc2c(-n3c(C4CC4)nc4c(-c5nnc[nH]5)cc(N5CCOCC5)cc43)ccnc12 [Example 110, 4-[3-(8-chloroquinolin-4-yl)-2-cyclopropyl-7-(4H-1,2,4-triazol-3-yl)benzimidazol-5-yl]morpholine]  19 nM
11. COCCc1nc2c(-c3nnc[nH]3)cc(N3CCOCC3)cc2n1-c1ccnc2c(Cl)cccc12 [Example 116, 4-[3-(8-chloroquinolin-4-yl)-2-(2-methoxyethyl)-7-(4H-1,2,4-triazol-3-yl)benzimidazol-5-yl]morpholine]  21 nM
12. Cc1nc2c(-c3nnc[nH]3)cc(N3CCOCC3)cc2n1-c1ccnc2c(C(F)(F)F)cccc12 [Example 108, 4-[2-methyl-7-(4H-1,2,4-triazol-3-yl)-3-[8-(trifluoromethyl)quinolin-4-yl]benzimidazol-5-yl]morpholine]  26 nM
13. CCc1nc2c(-c3nnc[nH]3)cc(N3CCOCC3)cc2n1-c1ccnc2ccccc12 [Example 107, 4-[2-ethyl-3-quinolin-4-yl-7-(4H-1,2,4-triazol-3-yl)benzimidazol-5-yl]morpholine]  29 nM
14. Cc1nnc(-c2cc(N3CCOCC3)cc3c2nc(C)n3-c2cc(-c3cscn3)nc3ccccc23)[nH]1 [Example 104, 4-(2-methyl-4-(5-methyl-4H-1,2,4-triazol-3-yl)-1-(2-(thiazol-4-yl)quinolin-4-yl)-1H-benzo[d]imidazol-6-yl)morpholine]  84 nM
